From patent US20240408072A1, “COMPOSITION FOR PREVENTING OR TREATING GRAVES' DISEASE COMPRISING COMPOUND CONTAINING AN IMIDAZOPYRIDINE STRUCTURE AS ACTIVE INGREDIENT” (ESGELBIO INC., priority 2021, published 2024)
Entries after “also recorded” stand apart in the source; their conditions may differ. Read-outs that look alike come from different tables or passages of the source.

Legend:
Human MPO = Human MPO (Homo sapiens (Human), UniProt P05164); test: Myeloperoxidase (MPO) inhibition IC50 screening; format: biochemical
Text: To discover new therapeutics for the treatment of Graves' disease, the inventors screened compounds for inhibition activity against myeloperoxidase (MPO). The screening process is schematically represented in FIG. 1. Use was made of approximately 7,000 compounds for the screening.

HL-60 MPO = HL-60 MPO (Homo sapiens (Human), UniProt P05164); test: HL-60 MPO inhibition, drugs treated to media; format: cell-based
Description: The screening of compounds for MPO inhibition activity was conducted in three stages.

[1] = test system: TG (thyroglobulin) expression; test: Inhibition of TG expression in SNU760 cells; format: cell-based; settings: 50 uM, SNU760 Human Thyroid cell lines, FIG. 2
Description: (§1) To confirm whether the imidazopyridine scaffold-bearing compounds screened in Example 1 could be used as treatments for Graves' disease, SNU760 Human Thyroid cell lines were treated with various concentrations of each compound and then analyzed their ability to inhibit the expression of TPO (thyroid peroxidase) and TG (thyroglobulin).

[2] = test system: Graves' disease-induced mice; test: Serum thyroxine (T4) in Graves' disease-induced (Ad-TSHR) mice; format: in vivo, BALB/c mice; settings: 10 mg/kg daily for three weeks, abdominal cavity, FIG. 8
Description: (§2) To create a mouse model with induced Graves' disease, 6-week-old female BALB/c mice were used. The thyroid stimulating hormone receptor (TSHR) expressing adenovirus, Ad-TSHR, was purchased from VectorBuilder (Chicago, USA, www.vectorbuilder.com). […] The virus was injected three times at three-week intervals, totaling nine weeks of injections to induce overexpression of TSHR and thereby cause Graves' disease.
(§3) In the Graves' disease-induced mouse model established in <3-1>, the therapeutic effectiveness of the imidazopyridine scaffold-bearing compounds screened in the present disclosure was evaluated.
(§4) After extracting the thyroid glands from each mouse, the sizes of the thyroids were visually compared, and the concentration of thyroxine (T4) in the blood was analyzed.
After administering drugs for three weeks to mice in which Graves' disease was induced by the Ad-TSHR virus over nine weeks, the serum was isolated to measure the concentration of thyroxine (T4).

[3] = test system: Graves' disease-induced mice; test: Thyroid size in Graves' disease-induced (Ad-TSHR) mice; format: in vivo, BALB/c mice; settings: 10 mg/kg daily for three weeks, abdominal cavity, vs Ad-TSHR group, FIG. 7
Description: as §2, §3, §4

[4] = test system: TPO (thyroid peroxidase) expression; test: Inhibition of TPO expression in SNU760 cells; format: cell-based; settings: 50 uM, SNU760 Human Thyroid cell lines, FIG. 2
Description: as §1

thyroid peroxidase (TPO) = thyroid peroxidase (TPO) (Homo sapiens (Human), UniProt P07202); test: Thyroid peroxidase (TPO) inhibition IC50; format: biochemical; settings: Table 3
thyroid peroxidase (TPO), sequence (P07202 19-933, species assumed): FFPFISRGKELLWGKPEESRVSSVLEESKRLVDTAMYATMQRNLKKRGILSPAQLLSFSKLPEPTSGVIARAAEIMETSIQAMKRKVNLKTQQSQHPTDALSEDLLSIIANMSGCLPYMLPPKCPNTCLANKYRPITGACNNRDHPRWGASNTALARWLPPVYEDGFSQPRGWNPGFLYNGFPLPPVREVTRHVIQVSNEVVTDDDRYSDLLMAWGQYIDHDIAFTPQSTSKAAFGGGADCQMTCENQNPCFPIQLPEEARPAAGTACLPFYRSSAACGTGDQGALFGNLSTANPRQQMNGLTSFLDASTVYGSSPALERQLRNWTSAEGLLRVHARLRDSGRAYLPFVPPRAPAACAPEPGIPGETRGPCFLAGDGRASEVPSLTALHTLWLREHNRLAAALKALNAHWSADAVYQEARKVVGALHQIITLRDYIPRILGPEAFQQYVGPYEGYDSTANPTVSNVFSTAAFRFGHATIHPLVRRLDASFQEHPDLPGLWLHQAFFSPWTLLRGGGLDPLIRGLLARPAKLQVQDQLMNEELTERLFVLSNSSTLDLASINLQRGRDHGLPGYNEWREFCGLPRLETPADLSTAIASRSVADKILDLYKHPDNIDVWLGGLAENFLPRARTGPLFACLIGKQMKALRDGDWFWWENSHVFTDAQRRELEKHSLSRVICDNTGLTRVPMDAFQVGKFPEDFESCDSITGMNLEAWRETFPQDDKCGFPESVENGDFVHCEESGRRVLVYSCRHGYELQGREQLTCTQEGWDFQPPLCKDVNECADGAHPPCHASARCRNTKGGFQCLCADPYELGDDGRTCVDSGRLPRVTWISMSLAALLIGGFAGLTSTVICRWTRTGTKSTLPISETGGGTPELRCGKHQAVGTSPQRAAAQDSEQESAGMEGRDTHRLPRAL

Human MPO, sequence (P05164 49-745): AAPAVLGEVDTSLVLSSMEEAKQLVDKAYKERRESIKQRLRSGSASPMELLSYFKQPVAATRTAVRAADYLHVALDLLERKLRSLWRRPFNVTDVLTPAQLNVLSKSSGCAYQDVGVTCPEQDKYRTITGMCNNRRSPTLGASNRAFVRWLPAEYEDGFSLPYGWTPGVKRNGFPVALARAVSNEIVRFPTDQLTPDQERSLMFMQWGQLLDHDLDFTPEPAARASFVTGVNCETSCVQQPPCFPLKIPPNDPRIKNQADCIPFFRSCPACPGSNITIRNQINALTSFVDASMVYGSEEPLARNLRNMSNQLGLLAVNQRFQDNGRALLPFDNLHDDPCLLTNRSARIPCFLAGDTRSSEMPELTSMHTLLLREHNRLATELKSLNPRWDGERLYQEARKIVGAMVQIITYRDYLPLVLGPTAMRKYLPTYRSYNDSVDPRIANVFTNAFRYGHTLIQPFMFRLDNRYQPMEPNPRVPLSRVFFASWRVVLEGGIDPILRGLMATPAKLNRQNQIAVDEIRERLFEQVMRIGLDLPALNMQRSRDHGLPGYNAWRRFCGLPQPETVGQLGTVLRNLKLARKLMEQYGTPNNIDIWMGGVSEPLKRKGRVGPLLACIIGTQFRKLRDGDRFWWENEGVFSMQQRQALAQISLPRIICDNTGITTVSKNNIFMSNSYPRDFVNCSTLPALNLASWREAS
HL-60 MPO, sequence (P05164 49-745): as above

SMILES: CC(C)OCCn1c(=S)[nH]c(=O)c2[nH]ccc21 [AZD3241]
- IC50 (Human MPO; Chemical Library 2nd Screening, MPO, read-out: IC50): 0.021 µM
- IC50 (Human MPO; Chemical Library 3rd Screening, read-out: IC50 (uM) (Human MPO)): 0.021 µM
- HL-60 MPO Inhibition (%) (treat to media) (HL-60 MPO; 2nd Screening): 0%
- inhibition at 25 µM (HL-60 MPO; HL-60, 3rd Screening, 25 uM, read-out: HL-60 MPO Inhibition (%) (25 uM of Drugs are treated to media)): 0%

SMILES: Cc1ccc2nc(-c3cccnc3)c(Nc3ccc4c(c3)OCO4)n2c1 [NE-2-6, N-(2H-1,3-BENZODIOXOL-5-YL)-6-METHYL-2-(PYRIDIN-3-YL) IMIDAZO [1,2-A]PYRIDIN-3-AMINE]
- inhibition of the expression of TG [1]: ~100%
- serum thyroxine (T4) concentration [2]: significant reduction; also recorded: more effective
- thyroid size (visually compared) [3]: effectively reduced thyroid sizes; also recorded: nearly restored to normal levels
- inhibition of the expression of TPO [4]: ~100%

SMILES: COc1ccc(-c2nc3cc(C)ccn3c2Nc2ccc3c(c2)OCO3)cc1 [NE-2-7, N-(2H-1,3-BENZODIOXOL-5- YL)-2-(4-METHOXYPHENYL)-7- METHYLIMIDAZO[1,2- A]PYRIDIN-3-AMINE]
- IC50 (thyroid peroxidase (TPO)): 0.02 µM
